The values that follow come from patent publication US9873709B2 (priority 2013, dated 2018).

As a reminder, the IC50 is the concentration that inhibits the measured activity by half. By Ki is commonly meant a dissociation constant, usually derived from enzyme kinetics or from competition with a known ligand.

The test system of test [1] is JAK1-dependent STAT6 phosphorylation downstream of IL-13 stimulation in TF-1 human erythroleukemia cells. Briefly: cells. The following applies: TF-1, read-out: IL-13-pSTAT6 IC50.
For test [2], the target named is isolated recombinant JAK2 kinase domain (Homo sapiens (Human), UniProt O60674). The following applies: read-out: JAK2 Ki.
In test [3] the test system is JAK1-dependent STAT6 phosphorylation downstream of IL-13 stimulation in BEAS-2B human bronchial epithelial cells. Briefly: cells. The following applies: read-out: IL13-pSTAT6 BEASB2B IC50.
Protocol: Inhibitor potency (EC50) was determined in cell-based assays designed to measure JAK1 dependent STAT phosphorylation.
Prior to use in the assays, TF-1 cells were starved of GM-CSF overnight in OptiMEM medium (Life Technologies, Grand Island, N.Y.) supplemented with 0.5% charcoal/dextran stripped fetal bovine serum (FBS), 0.1 mM non-essential amino acids (NEAA), and 1 mM sodium pyruvate. The assays were run in 384-well plates in serum-free OptiMEM medium using 300,000 cells per well. In a second assay approach, BEAS-2B human bronchial epithelial cells obtained from ATCC were plated at 100,000 cells per well of a 96-well plate one day prior to the experiment. The BEAS-2B assay was run in complete growth medium (bronchial epithelial basal medium plus bulletkit; Lonza; Basel, Switzerland).
Test compounds were serially diluted 1:2 in DMSO and then diluted 1:50 in medium just before use. Diluted compounds were added to the cells, for a final DMSO concentration of 0.2%, and incubated for 30 min (for the TF-1 assay) or 1 hr (for the BEAS-2B assay) at 37° C. Then, cells were stimulated with human recombinant cytokine at their respective EC90 concentrations, as previously determined for each individual lot. […] The resultant samples were frozen in the plates at −80° C. Compound mediated inhibition of STAT6 phosphorylation was measured in the cell lysates using MesoScale Discovery (MSD) technology (Gaithersburg, Md.).
Setting [4] is: isolated recombinant JAK2 kinase domain, 25 μM ATP.

Like-named read-outs stand apart in the source and are kept apart here.

isolated recombinant JAK2 kinase domain, sequence (O60674 849-1124): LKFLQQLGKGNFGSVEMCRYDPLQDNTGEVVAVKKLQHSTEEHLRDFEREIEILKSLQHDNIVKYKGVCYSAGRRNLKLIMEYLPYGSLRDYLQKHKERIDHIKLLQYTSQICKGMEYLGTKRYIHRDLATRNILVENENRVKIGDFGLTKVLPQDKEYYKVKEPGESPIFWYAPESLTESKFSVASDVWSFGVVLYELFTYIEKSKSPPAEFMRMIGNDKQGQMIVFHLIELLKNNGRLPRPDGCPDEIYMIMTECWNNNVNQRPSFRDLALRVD

With `CN1CCC(N(C)C(=O)c2ccc(Nc3nc4c(N5CCC(CC(N)=O)(c6ccccc6)CC5)cccn4n3)cc2)CC1` [Example 1-30, 4-[[8-[4-(2-amino-2-oxo-ethyl)-4-phenyl-1-piperidyl]-[1,2,4]triazolo[1,5-a]pyridin-2-yl]amino]-N-methyl-N-(1-methyl-4-piperidyl)benzamide], the half-maximal inhibitory concentration (IC50) in test [1] was found to be 252 nM. The Ki in test [2] (setting [4]) was 0.27 nM.

As to `CN1CCC(N(C)C(=O)c2ccc(Nc3nc4c(N5CCN(C(=O)N6CC(C)(C)C6)CC5)cccn4n3)cc2)CC1` [Example 1-34, 4-[[8-[4-(3,3-dimethylazetidine-1-carbonyl)piperazin-1-yl]-[1,2,4]triazolo[1,5-a]pyridin-2-yl]amino]-N-methyl-N-(1-methyl-4-piperidyl)benzamide], the IC50 in test [1] came to 916 nM. Further, in test [2] (setting [4]), the inhibition constant (Ki) was 8.61 nM. Consider `CCc1ccc(C2(O)CCN(c3cccn4nc(Nc5ccc(C(=O)N(C)C6CCN(C)CC6)cc5)nc34)CC2)cc1` [Example 1-36, 4-[[8-[4-(4-ethylphenyl)-4-hydroxy-1-piperidyl]-[1,2,4]triazolo[1,5-a]pyridin-2-yl]amino]-N-methyl-N-(1-methyl-4-piperidyl)benzamide], for which, in test [1], the IC50 came out at 142 nM. Moreover, in test [2] (setting [4]), the Ki turned out to be 4.32 nM.

With `COCCOc1cc(COC2CCN(c3cccn4nc(Nc5ccc(C(=O)N(C)C6CCN(C)CC6)cc5)nc34)CC2)ccn1` [Example 1-44, 4-[[8-[4-[[2-(2-methoxyethoxy)-4-pyridyl]methoxy]-1-piperidyl]-[1,2,4]triazolo[1,5-a]pyridin-2-yl]amino]-N-methyl-N-(1-methyl-4-piperidyl)benzamide], in test [1], the 50% inhibitory concentration (IC50) was 168 nM. In addition, the Ki in test [2] (setting [4]) worked out at 7.03 nM. For the molecule `CN1CCN(C2CCN(C(=O)c3ccc(Nc4nc5c(N6CCC(O)(c7ccc(Cl)cc7)CC6)cccn5n4)cc3)CC2)CC1` [Example 1-117, [4-[[8-[4-(4-chlorophenyl)-4-hydroxy-1-piperidyl]-[1,2,4]triazolo[1,5-a]pyridin-2-yl]amino]phenyl]-[4-(4-methylpiperazin-1-yl)-1-piperidyl]methanone], the IC50 in test [1] is 29.2 nM. The Ki in test [2] (setting [4]) was determined as 0.85 nM. With `CC1CN(C2CCN(C(=O)c3ccc(Nc4nc5c(N6CCC(O)(c7ccc(Cl)cc7)CC6)cccn5n4)cc3)CC2)CC(C)O1` (stereo not shown) [Example 1-118, [4-[[8-[4-(4-chlorophenyl)-4-hydroxy-1-piperidyl]-[1,2,4]triazolo[1,5-a]pyridin-2-yl]amino]phenyl]-[4-(2,6-dimethylmorpholin-4-yl)-1-piperidyl]methanone], the half-inhibitory concentration (IC50) in test [3] worked out at 112 nM. Consider `O=C(c1ccc(Nc2nc3c(N4CCC(O)(c5ccc(Cl)cc5)CC4)cccn3n2)cc1)N1CCN(Cc2cccnc2)CC1` [Example 1-123, [4-[[8-[4-(4-chlorophenyl)-4-hydroxy-1-piperidyl]-[1,2,4]triazolo[1,5-a]pyridin-2-yl]amino]phenyl]-[4-(3-pyridylmethyl)piperazin-1-yl]methanone], for which the IC50 in test [1] came to 25.8 nM. For the same molecule, in test [2] (setting [4]), the inhibition constant (Ki) was found to be 0.7 nM.

With `CC(C)N1CCC(CN(C)C(=O)c2ccc(Nc3nc4c(N5CCC(O)(c6ccc(Cl)cc6)CC5)cccn4n3)cc2)C1` (stereo not shown) [Example 1-129, 4-[[8-[4-(4-chlorophenyl)-4-hydroxy-1-piperidyl]-[1,2,4]triazolo[1,5-a]pyridin-2-yl]amino]-N-[(1-isopropylpyrrolidin-3-yl)methyl]-N-methyl-benzamide], the IC50 in test [1] is 37.7 nM. The Ki in test [2] (setting [4]) came out at 1.74 nM. On to `CN(Cc1cccnc1)C(=O)c1ccc(Nc2nc3c(N4CCC(O)(c5ccc(Cl)cc5)CC4)cccn3n2)cc1` [Example 1-138, 4-[[8-[4-(4-chlorophenyl)-4-hydroxy-1-piperidyl]-[1,2,4]triazolo[1,5-a]pyridin-2-yl]amino]-N-methyl-N-(3-pyridylmethyl)benzamide], for which, in test [1], the IC50 is 135 nM. For the same molecule, the Ki in test [2] (setting [4]) stood at 3.56 nM. Consider `CN(C)CCN1CCN(C(=O)c2ccc(Nc3nc4c(N5CCC(O)(c6ccc(Cl)cc6)CC5)cccn4n3)cc2)CC1` [Example 1-139, [4-[[8-[4-(4-chlorophenyl)-4-hydroxy-1-piperidyl]-[1,2,4]triazolo[1,5-a]pyridin-2-yl]amino]phenyl]-[4-[2-(dimethylamino)ethyl]piperazin-1-yl]methanone], for which the IC50 in test [1] was found to be 20.6 nM. Moreover, in test [2] (setting [4]), the Ki is 1.95 nM. As to `O=C(c1ccc(Nc2nc3c(N4CCC(O)(c5ccc(Cl)cc5)CC4)cccn3n2)cc1)N1CCCC1c1ccncc1` (stereo not shown) [Example 1-147, [4-[[8-[4-(4-chlorophenyl)-4-hydroxy-1-piperidyl]-[1,2,4]triazolo[1,5-a]pyridin-2-yl]amino]phenyl]-[2-(4-pyridyl)pyrrolidin-1-yl]methanone], the IC50 in test [1] was determined as 66.5 nM. In addition, the Ki in test [2] (setting [4]) was 1.41 nM. As to `CNC(=O)C1CN(C(=O)c2ccc(Nc3nc4c(N5CCC(O)(c6ccc(Cl)cc6)CC5)cccn4n3)cc2)CCN1Cc1ccccc1` (stereo not shown) [Example 1-153, 1-benzyl-4-[4-[[8-[4-(4-chlorophenyl)-4-hydroxy-1-piperidyl]-[1,2,4]triazolo[1,5-a]pyridin-2-yl]amino]benzoyl]-N-methyl-piperazine-2-carboxamide], the IC50 in test [1] is 26 nM. Moreover, the Ki in test [2] (setting [4]) is 1.14 nM. For `CN1CCC(CCNC(=O)c2ccc(Nc3nc4c(N5CCC(O)(c6ccc(Cl)cc6)CC5)cccn4n3)cc2)CC1` [Example 1-154, 4-[[8-[4-(4-chlorophenyl)-4-hydroxy-1-piperidyl]-[1,2,4]triazolo[1,5-a]pyridin-2-yl]amino]-N-[2-(1-methyl-4-piperidyl)ethyl]benzamide] the same measures were 37.3 nM and 0.64 nM.

As to `N#CCCN1CCN(C(=O)c2ccc(Nc3nc4c(N5CCC(O)(c6ccc(Cl)cc6)CC5)cccn4n3)cc2)CC1` [Example 1-167, 3-[4-[4-[[8-[4-(4-chlorophenyl)-4-hydroxy-1-piperidyl]-[1,2,4]triazolo[1,5-a]pyridin-2-yl]amino]benzoyl]piperazin-1-yl]propanenitrile], the IC50 in test [1] is 12.1 nM. The Ki in test [2] (setting [4]) came to 2.86 nM. For `CN1CCCC(CN(C)C(=O)c2ccc(Nc3nc4c(N5CCC(O)(c6ccc(Cl)cc6)CC5)cccn4n3)cc2)C1` (stereo not shown) [Example 1-170, 4-[[8-[4-(4-chlorophenyl)-4-hydroxy-1-piperidyl]-[1,2,4]triazolo[1,5-a]pyridin-2-yl]amino]-N-methyl-N-[(1-methyl-3-piperidyl)methyl] benzamide] the same measures were 15.5 nM and 0.98 nM. As to `O=C(NCCN1CCCCC1)c1ccc(Nc2nc3c(N4CCC(O)(c5ccc(Cl)cc5)CC4)cccn3n2)cc1` [Example 1-173, 4-[[8-[4-(4-chlorophenyl)-4-hydroxy-1-piperidyl]-[1,2,4]triazolo[1,5-a]pyridin-2-yl]amino]-N-[2-(1-piperidyl)ethyl]benzamide], the IC50 in test [1] is 23.1 nM. For the same molecule, in test [2] (setting [4]), the Ki was determined as 2.45 nM. For `CNC(=O)C1CN(C(C)C)CCN1C(=O)c1ccc(Nc2nc3c(N4CCC(O)(c5ccc(Cl)cc5)CC4)cccn3n2)cc1` (stereo not shown) [Example 1-174, 1-[4-[[8-[4-(4-chlorophenyl)-4-hydroxy-1-piperidyl]-[1,2,4]triazolo[1,5-a]pyridin-2-yl]amino]benzoyl]-4-isopropyl-N-methyl-piperazine-2-carboxamide] the same measures were 31.1 nM and 2.31 nM. For `CN1CCC(OC(=O)c2ccc(Nc3nc4c(N5CCC(O)(c6ccc(Cl)cc6)CC5)cccn4n3)cc2)CC1` [Example 1-178, (1-methyl-4-piperidyl) 4-[[8-[4-(4-chlorophenyl)-4-hydroxy-1-piperidyl]-[1,2,4]triazolo[1,5-a]pyridin-2-yl]amino]benzoate] the same measures were 98.3 nM and 1.07 nM. Take `CN1CCC(N(C)C(=O)c2ccc(Nc3nc4c(N5CCC(CO)(c6ccc(Cl)cc6)CC5)cccn4n3)cc2)CC1` [Example 1-246]: in test [1], the IC50 worked out at 5.4 nM. For the same molecule, the Ki in test [2] amounted to 0.33 nM. Turning to `CN1CCC(N(C)C(=O)c2ccc(Nc3nc4c(N5CCC(c6ccc(Cl)cc6)(C(O)C(F)(F)F)CC5)cccn4n3)cc2)CC1` (stereo not shown) [Example 1-253, 4-[[8-[4-(4-chlorophenyl)-4-(2,2,2-trifluoro-1-hydroxy-ethyl)-1-piperidyl]-[1,2,4]triazolo[1,5-a]pyridin-2-yl]amino]-N-methyl-N-(1-methyl-4-piperidyl)benzamide], the IC50 in test [3] came to 418 nM.

Turning to `CN1CCC(N(C)C(=O)c2ccc(Nc3nc4c(C5=CCC(CC#N)(c6ccc(Cl)cc6)CC5)cccn4n3)cc2)CC1` (stereo not shown) [Example 1-294, 4-([8-[4-(4-chlorophenyl)-4-(cyanomethyl)cyclohex-1-en-1-yl]-[1,2,4]triazolo[1,5-a]pyridin-2-yl]amino)-N-methyl-N-(1-methylpiperidin-4-yl)benzamide], in test [1], the IC50 was determined as 62.7 nM. Also, the Ki in test [2] was 0.4 nM. For `CC(C)CN1CCC(N(C)C(=O)Cn2cc(Nc3nc4c(C5=CCN(C(=O)CCC(F)(F)F)CC5)cccn4n3)cn2)CC1` [Example 1-297, N-methyl-N-[1-(2-methylpropyl)piperidin-4-yl]-2-[4-([8-[1-(4,4,4-trifluorobutanoyl)-1,2,3,6-tetrahydropyridin-4-yl]-[1,2,4]triazolo[1,5-a]pyridin-2-yl]amino)-1H-pyrazol-1-yl]acetamide] the same measures were 36.7 nM and 9.44 nM. On to `CN1CCC(N(C)C(=O)c2ccc(Nc3nc4c(N5CCC(CC(N)=O)(c6ccc(Cl)cc6)CC5)cccn4n3)cc2)CC1` [Example 1-298], for which, in test [1], the IC50 worked out at 125 nM. Further, in test [2] (setting [4]), the Ki was determined as 0.45 nM.

Take `CN1CCC(N(C)C(=O)c2ccc(Nc3nc4c(N5CCC(CC(=O)N(C)C)(c6ccc(Cl)cc6)CC5)cccn4n3)cc2)CC1` [Example 1-300, 4-([8-[4-(4-chlorophenyl)-4-[(dimethylcarbamoyl)methyl]piperidin-1-yl]-[1,2,4]triazolo[1,5-a]pyridin-2-yl]amino)-N-methyl-N-(1-methylpiperidin-4-yl)benzamide]: in test [1], the IC50 is 26.3 nM. Besides, the Ki in test [2] (setting [4]) was found to be 0.55 nM.
